Assay results taken from patent US6232305A, “Substituted amino bicyclic-β-lactam penam and cepham derivatives as cysteine protease inhibitors” (Naeja Pharmaceutical Inc., priority 1998, dated 2001).

What was measured:
Cathepsin B = Cathepsin B (Rattus norvegicus, UniProt P00787); assay: In vitro inhibition of cathepsin B; assay type: biochemical; conditions: r rat cathepsin B; substrate N-CBZ-Phe-Arg-AMC; pH 5.1; 10 min incubation at room temperature
Description: TEST EXAMPLE 1 In Vitro Assay Procedure for Cathepsin B The compounds of formula I were tested for inhibition of cathepsin B using the known method (A. J. Barret et al., Biochem. J. 1982, 201, 189-198). […] After 10 min of incubation at room temperature, a 20 μl of 5 mM substrate (N-CBZ-Phe-Arg-AMC, dissolved in DMSO) was added to initiate reaction. Reading is followed up for 10 min at the fluoroscan reader (excitation at 380 nm emission at 460 nm).

Cathepsin L = Cathepsin L (Rattus norvegicus, UniProt P07154); assay: In vitro inhibition of cathepsin L; assay type: biochemical; conditions: r rat cathepsin L; substrate N-CBZ-Phe-Arg-AMC; pH 5.0; 10 min incubation at room temperature
Sequence of Cathepsin L (P07154 114-334): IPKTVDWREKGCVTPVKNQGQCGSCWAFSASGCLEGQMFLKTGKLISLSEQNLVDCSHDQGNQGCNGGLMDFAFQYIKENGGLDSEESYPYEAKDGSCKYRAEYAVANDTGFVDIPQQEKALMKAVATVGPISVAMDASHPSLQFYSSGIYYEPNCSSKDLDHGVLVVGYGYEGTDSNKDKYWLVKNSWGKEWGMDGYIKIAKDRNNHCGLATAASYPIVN
Description: TEST EXAMPLE 2 In Vitro Assay Procedure for Cathepsin L […] After 10 min of incubation at room temperature, a 20 μl of 1 mM substrate (N-CBZ-Phe-Arg-AMC, dissolved in DMSO) was added to initiate reaction. Reading is followed up for 10 min at the fluoroscan reader (excitation at 380 nm emission at 460 nm).

Sequence of Cathepsin B (P00787 80-339): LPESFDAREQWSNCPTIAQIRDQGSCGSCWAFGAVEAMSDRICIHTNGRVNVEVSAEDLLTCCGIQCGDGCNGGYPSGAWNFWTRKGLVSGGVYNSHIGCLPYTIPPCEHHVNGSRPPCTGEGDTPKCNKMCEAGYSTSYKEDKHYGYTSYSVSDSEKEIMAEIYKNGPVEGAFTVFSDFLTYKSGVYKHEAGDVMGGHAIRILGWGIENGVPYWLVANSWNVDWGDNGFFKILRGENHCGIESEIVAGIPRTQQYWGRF

Structure (SMILES)	IC50 (Cathepsin B)	IC50 (Cathepsin L)
O=C(N[C@@H](Cc1ccccc1)C(=O)N[C@@H]1C(=O)N2CCS[C@@H]12)OCc1ccccc1 [Example 1, (5S,6R)-6-(2S-2-benzyloxycarbonylamino-2-phenylmethyl-acetamido)-4-thia-1-azabicyclo [3,2,0] heptan-7-one]	> 50000 nM	6680 nM
O=C(N[C@@H](Cc1ccccc1)C(=O)N[C@@H]1C(=O)N2CCCS(=O)(=O)[C@@H]12)OCc1ccccc1 [Example 15, (6S,7R)-7-(2S-2-benzyloxycarbonylamino-2-phenylmethyl-acetamido)-5,5-dioxo-5-thia-1-azabicyclo [4,2,0] octan-8-one]	> 50000 nM	2120 nM
COC(=O)[C@@H]1N2C(=O)[C@@H](NC(=O)[C@H](Cc3ccccc3)NC(=O)OCc3ccccc3)[C@H]2S(=O)(=O)C1(C)C [Example 18, Methyl (2S,5R,6R)-6-(2S-2-benzyloxycarbonylamino-2-phenylmethyl-acetamido)-3,3-dimethyl-7-oxo-4,4-dioxo4-thia-1-azabicyclo[3,2,0]heptane-2-carboxylate]	28200 nM	1740 nM
O=C(N[C@@H](Cc1ccccc1)C(=O)N[C@@H]1C(=O)N2CCCS[C@@H]12)OCc1ccccc1 [Example 14, (6S,7R)-7-(2S-2-benzyloxycarbonylamino-2-phenylmethyl-acetamido)-5-thia-1-azabicyclo [4,2,0] octan-8-one]	> 50000 nM	> 50000 nM
O=C(CCc1ccccc1)N[C@@H](Cc1cccs1)C(=O)N[C@@H]1C(=O)N2CCS[C@@H]12 [Example 8, (5S,6R)-6-{2S-2-(3-phenylpropionoyl)amino-2-(2-thienyl)methyl-acetamido}-4-thia-1-azabicyclo [3,2,0] heptan-7-one]	> 50000 nM	11600 nM
O=C(CCc1ccccc1)N[C@@H](Cc1ccc2ccccc2c1)C(=O)N[C@@H]1C(=O)N2CCS[C@@H]12 [Example 6, (5S,6R)-6-{2S-2-(3-phenylpropionoyl)amino-2-(2-naphthyl)methyl-acetamido}-4-thia-1-azabicyclo [3,2,0] heptan-7-one]	10500 nM	430 nM
O=C(N[C@@H](Cc1ccccc1)C(=O)N[C@@H]1C(=O)N2CCCS(=O)(=O)[C@H]12)OCc1ccccc1 [Example 16, (6R,7R)-7-(2S-2-benzyloxycarbonylamino-2-phenylmethyl-acetamido)-5,5-dioxo-5-thia-1-azabicyclo [4,2,0] octan-8-one]	> 50000 nM	–
O=C(CCc1ccccc1)N[C@@H](Cc1cccc(F)c1)C(=O)N[C@@H]1C(=O)N2CCS[C@@H]12 [Example 10, (5S,6R)-6-{2S-2-(3-phenylpropionoyl)amino-2-(3-fluorophenyl)methyl-acetamido}4-4-thia-1-azabicyclo [3,2,0] heptan-7-one]	> 50000 nM	11300 nM
O=C(N[C@@H](Cc1cccnc1)C(=O)N[C@@H]1C(=O)N2CCS[C@@H]12)OCc1ccccc1 [Example 12, (5S,6R)-6-{2S-2-benzyloxycarbonylamino-2-(3-pyridyl)methyl-acetamido}-4-thia-1-azabicyclo [3,2,0] heptan-7-one]	> 50000 nM	11700 nM
O=C(N[C@H](Cc1ccccc1)C(=O)N[C@@H]1C(=O)N2CCS(=O)(=O)[C@@H]12)OCc1ccccc1 [Example 20, (5S,6R)-6{2R-2-benzyloxycarbonylamino-2-phenylmethyl-acetamido}-4,4-dioxo4-thia-1-azabicyclo[3,2,0] heptan-7-one]	> 50000 nM	44 nM
O=C(N[C@@H](Cc1ccccc1)C(=O)N[C@@H]1C(=O)N2CC[S+]([O-])[C@@H]12)OCc1ccccc1 (stereo partly drawn) [Example 21, (5S,6R)-6-{2S-2-benzyloxycarbonylamino-2-phenylmethyl-acetamido}-4-oxo-4-thia-1-azabicyclo [3,2,0] heptan-7-one]	16400 nM	68 nM
CC1(C)[C@H](C(=O)O)N2C(=O)[C@@H](NC(=O)[C@H](Cc3ccccc3)NC(=O)CCc3ccccc3)[C@H]2S1(=O)=O [Example 19, (2S,5R,6R)-6-{2S-2-(3-phenylpropionoyl)amino-2-phenylmethyl-acetamido}-3,3-dimethyl-7-oxo-4,4-dioxo-4-thia-1-azabicyclo [3,2,0] heptane-2-carboxylic acid]	> 50000 nM	6770 nM
O=C(N[C@@H](Cc1ccccc1)C(=O)N[C@@H]1C(=O)N2CCS(=O)(=O)[C@H]12)OCc1ccccc1 [Example 3, (5R,6R)-6-(2S-2-benzyloxycarbonylamino-2-phenylmethyl-acetamido)-4,4-dioxo-4-thia-1-azabicyclo [3,2,0] heptan-7-one]	6010 nM	9.6 nM
O=C(CCc1ccccc1)N[C@@H](CC1CCCCC1)C(=O)N[C@@H]1C(=O)N2CCS[C@@H]12 [Example 4, (5S,6R)-6-{2S-2-(3-phenylpropionoyl)amino-2-cyclohexylmethyl-acetamido}-4-thia-1-azabicyclo [3,2,0] heptan-7-one]	> 50000 nM	> 50000 nM
O=C(N[C@@H](Cc1ccccc1)C(=O)N[C@@H]1C(=O)N2CC(O)CS[C@@H]12)OCc1ccccc1 (stereo partly drawn) [Example 17, (6S,7R)-7-(2S-2-benzyloxycarbonylamino-2-phenylmethyl-acetamido)-3-hydroxy-5-thia-1-azabicyclo [4,2,0] octan-8-one]	> 50000 nM	2190 nM

The next compounds have a lower IC50 (Cathepsin B) than those just listed; values first:

IC50 (Cathepsin B)	IC50 (Cathepsin L)	Structure (SMILES)
430 nM	3 nM	O=C(CCc1ccccc1)N[C@@H](Cc1cccs1)C(=O)N[C@@H]1C(=O)N2CCS(=O)(=O)[C@@H]12 [Example 9, (5S,6R)-6-{2S-2-(3-phenylpropionoyl)amino-2-(2-thienyl)methyl-acetamido}-4,4-dioxo-4-thia-1-azabicyclo [3,2,0] heptan-7-one]
1000 nM	3.3 nM	O=C(CCc1ccccc1)N[C@@H](Cc1cccc(F)c1)C(=O)N[C@@H]1C(=O)N2CCS(=O)(=O)[C@@H]12 [Example 11, (5S,6R)-6-{2S-2-(3-phenylpropionoyl)amino-2-(3-fluorophenyl)methyl-acetamido}-4,4-dioxo-4-thia-1-azabicyclo [3,2,0] heptan-7-one]
350 nM	1.4 nM	O=C(N[C@@H](Cc1ccccc1)C(=O)N[C@@H]1C(=O)N2CCS(=O)(=O)[C@@H]12)OCc1ccccc1 [Example 2, (5S,6R)-6-(2S-2-benzyloxycarbonylamino-2-phenylmethyl-acetamido)-4,4-dioxo-4-thia-1-azabicyclo [3,2,0] heptan-7-one]
1300 nM	1.7 nM	O=C(N[C@@H](Cc1cccnc1)C(=O)N[C@@H]1C(=O)N2CCS(=O)(=O)[C@@H]12)OCc1ccccc1 [Example 13, (5S,6R)-6-{2S-2-benzyloxycarbonylamino-2-(3-pyridyl)methyl-acetamido}-4,4-dioxo-4-thia-1-azabicyclo [3,2,0] heptan-7-one]
390 nM	3 nM	O=C(CCc1ccccc1)N[C@@H](Cc1ccc2ccccc2c1)C(=O)N[C@@H]1C(=O)N2CCS(=O)(=O)[C@@H]12 [Example 7, (5S,6R)-6-{2S-2-(3-phenylpropionoyl)amino-2-(2-naphthyl)methyl-acetamido}-4,4-dioxo-4-thia-1-azabicyclo [3,2,0] heptan-7-one]
430 nM	0.7 nM	O=C(CCc1ccccc1)N[C@@H](CC1CCCCC1)C(=O)N[C@@H]1C(=O)N2CCS(=O)(=O)[C@@H]12 [Example 5, (5S,6R)-6-{2S-2-(3-phenylpropionoyl)amino-2-cyclohexylmethyl-acetamido}-4,4-dioxo-4-thia-1-azabicyclo [3,2,0] heptan-7-one]
